Measurements reported in patent publication US8962650B2, “Therapeutic agent for tumor” (Eisai R&D Management Co., Ltd., priority 2011, dated 2015).

Tested on: human melanoma cell line (A375)
Assay: Tumor proliferation inhibitory effect in nude mice transplanted with human melanoma cell line A375 (relative tumor volume)
Type: in vivo, mouse
Conditions: oral once daily 10 mL/kg (Compound A 1 mg/mL, PLX4032 10 mg/mL), A375 subcutaneous
Method: The present invention is described in more detail by way of Examples below. Example 1 Tumor Proliferation Inhibitory Effect of the Combined Use of Compound A and PLX4032 on a Human Melanoma Cell Line (A375)
Using five nude mice in one group (CAnN.Cg-Foxn1nu/CrlCrlj, female, Charles River Laboratories Japan, Inc.), the antitumor effect of administration of Compound A, PLX4032, or both of these compounds was evaluated. The human-derived melanoma cell line A375 (ATCC) was suspended in PBS (Wako Pure Chemical Industries, Ltd) at a density of 5×10^6 cells/ml, followed by thorough mixing. The resulting mixture was subcutaneously transplanted at the right flank of the body of each mouse in an amount of 0.1 mL. Fourteen days after transplantation, the major axis and the minor axis of a tumor were measured by a digital caliper (Digimatic™ caliper, Mitsutoyo Corporation). The mice were grouped so that the average value of tumor volume was nearly equal among the groups. Also, the tumor volume was calculated according to the equations below. Tumor volume (mm^3)=major axis (mm)×minor axis (mm)×minor axis (mm)/2
Compound A was dissolved in purified water at a concentration of 1 mg/mL. Also, PLX4032 was dissolved in DMSO at a concentration of 200 mg/ml. Further, the resulting solution was diluted 20-fold with a 1% aqueous solution of methylcellulose to prepare a 10 mg/mL PLX4032 suspension.
A control group, a Compound A group, a PLX4032 group, and a Compound A and PLX4032-combination group (hereinbelow, expressed as a combination group) were set up. The aqueous solution of Compound A or the PLX4032 suspension was orally administered to the mice in the Compound A group or the PLX4032 group, respectively, once daily at 10 mL/kg. To the combination group mice, the above drug solutions were each orally administered once daily at 10 mL/kg. The administration period was 23 days. Also, administration was not given to the control group mice.
The tumor volume was measured on the initial day of administration and on the 2nd, 5th, 7th, 9th, 12th, 14th, 16th, 19th, 21st, and 23rd days after initiation of administration. The ratio of the tumor volume on each day of measurement relative to the tumor volume on the initial day of administration was calculated as a relative tumor volume (hereinbelow, expressed as RTV). Further, the average value of RTV of mice in each group was calculated. The changes in the average value of RTV with time were shown in Table 1 and FIG. 1 and the value of each group on Day 23 was shown in FIG. 2.

[1] = Day 2 after initiation of administration
[2] = Day 5 after initiation of administration
[3] = Day 7 after initiation of administration
[4] = Day 9 after initiation of administration
[5] = Day 12 after initiation of administration
[6] = Day 14 after initiation of administration
[7] = Day 16 after initiation of administration
[8] = Day 19 after initiation of administration
[9] = Day 21 after initiation of administration
[10] = Day 23 after initiation of administration

| SMILES | average relative tumor volume (RTV) [1] | average relative tumor volume (RTV) [2] | average relative tumor volume (RTV) [3] | average relative tumor volume (RTV) [4] | average relative tumor volume (RTV) [5] | average relative tumor volume (RTV) [6] | average relative tumor volume (RTV) [7] | average relative tumor volume (RTV) [8] | average relative tumor volume (RTV) [9] | average relative tumor volume (RTV) [10] |
| --- | --- | --- | --- | --- | --- | --- | --- | --- | --- | --- |
| COc1cc2nccc(Oc3ccc(NC(=O)NC4CC4)c(Cl)c3)c2cc1C(N)=O [Compound A, 4-[3-chloro-4-(cyclopropylaminocarbonyl)aminophenoxy]-7-methoxy-6-quinolinecarboxamide] | 1.77 | 2.62 | 3.40 | 3.85 | 5.12 | 5.40 | 6.30 | 7.89 | 9.16 | 10.17 |
| CCCS(=O)(=O)Nc1ccc(F)c(C(=O)c2c[nH]c3ncc(-c4ccc(Cl)cc4)cc23)c1F [PLX4032, N-(3-{[5-(4-chlorophenyl)-1H-pyrrolo[2,3-b]pyridin-3-yl]carbonyl}-2,4-difluorophenyl)propane-1-sulfonamide] | 0.98 | 0.94 | 1.00 | 1.13 | 1.46 | 1.38 | 1.52 | 1.63 | 1.80 | 1.93 |
